Usually IC50 stands for the concentration needed to halve the response being measured. Read a low IC50 as higher potency.

Like-named read-outs stand apart in the source and are kept apart here.

The experiment has as its target ALK5 (Homo sapiens (Human), UniProt P36897). The experiment in a line: Evaluation experiment of ALK5 enzyme activity inhibition IC50 (ADP-Glo kinase assay). Format: biochemical. How it is done:
1. Preparation of a 1× kinase buffer: 40 mM Tris (pH 7.5), 20 mM MgCl2, 0.10% BSA, 1 mM DTT.
2. Compound preparation: The final detection concentration of the compound was 10 μM, which was prepared to a 100-fold concentration, i.e., 1 mM. 100 μL of the 100-fold compound was added in the second well of the 384-well plate, and 60 μL of 100% DMSO was added to the other wells. […] 50 nL of the compound was transferred to the reaction plate with echo.
3. Kinase reaction: The kinase was added to a 1× kinase buffer to form a 2× enzyme solution. […] The polypeptide TGFbR1 (purchased from Signal Chem, catalog number T36-58) and ATP were added to a 1× kinase buffer to form a 2× substrate solution. The final concentration of the substrate solution was peptide TGFbR1 0.1 mg/mL, ATP 7 μM. 2.5 μL of the 2× enzyme solution was added to the 384-well reaction plate (there was already 50 nL of 100% DMSO dissolved compound), and a 1× kinase buffer was added to a negative control well. The reaction solution was incubated at room temperature for 10 minutes. 2.5 μL of 2× substrate solution was added to the 384-well reaction plate. The 384-well plate was covered and incubated at 30° C. for 1 hour. ADP-Glo reagent (purchased from Promege, catalog number v9102) was equilibrated to room temperature. 5 μL of ADP-Glo reagent was transferred to the reaction well of the 384-well plate to stop the reaction.
4. Detection of reaction results: 10 μL of kinase detection reagent was transferred to each well, shaken for 1 minute, and let stand at room temperature for 30 minutes. The sample luminescence value was read at Synegy.
5. Curve fitting: The data of the luminescence reading were copied from the Synegy program. The value of the luminescence reading was converted to inhibition percentage by a formula (inhibition percentage=(max−sample RLU)/(max−min)×100, where “min” was a fluorescence reading for a control sample without enzyme; “max” was a fluorescence reading for a sample with DMSO as a control). The data were imported into MS Excel and GraphPad Prism was used for curve fitting. IC50 value was calculated.
A general note: ADP-Glo turns the ADP formed in a reaction into a luminescent signal.

[1] abbreviates: ALK5 25 nM, peptide TGFbR1 0.1 mg/mL, ATP 7 μM, 30° C. 1 hour, ADP-Glo luminescence.

ALK5, sequence (P36897 34-503): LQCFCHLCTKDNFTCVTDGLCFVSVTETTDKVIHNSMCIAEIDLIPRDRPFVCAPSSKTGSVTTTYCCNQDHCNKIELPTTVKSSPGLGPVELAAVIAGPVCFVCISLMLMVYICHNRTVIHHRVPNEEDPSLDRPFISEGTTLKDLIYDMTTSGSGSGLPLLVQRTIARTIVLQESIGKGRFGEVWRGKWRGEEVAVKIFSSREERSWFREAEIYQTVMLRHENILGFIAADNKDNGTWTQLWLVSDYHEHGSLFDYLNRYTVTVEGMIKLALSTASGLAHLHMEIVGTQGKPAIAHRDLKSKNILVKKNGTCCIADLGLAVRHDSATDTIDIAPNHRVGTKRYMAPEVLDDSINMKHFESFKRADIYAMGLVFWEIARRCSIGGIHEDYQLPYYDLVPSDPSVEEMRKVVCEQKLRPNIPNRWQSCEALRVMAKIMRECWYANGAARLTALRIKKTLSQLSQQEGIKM

`Cc1cccc(/C=C\c2ccc3ncc(C(=O)NC4CC4)n3c2)n1` [Compound 4] returned an IC50 under setting [1] of 17 nM.
For `Cc1cccc(/C=C\c2ccn3ncc(C(N)=O)c3c2)n1` [Compound 13], the 50% inhibitory concentration (IC50) under setting [1] turned out to be 5.1 nM.
Compound `NC(=O)c1cnc2ccc(/C=C\c3cccc(C(F)(F)F)n3)cn12` [Compound 11] had an IC50 of 10 nM.
Under setting [1], `Cc1cccc(/C=C(/C(=O)O)c2ccc3ncc(C(N)=O)n3c2)n1` [Compound 17] came in with an IC50 of 616 nM.
The compound `Cc1cccc(/C=C(/C(=O)OC(C)(C)C)c2ccc3ncc(C(N)=O)n3c2)n1` [Compound 17a] came in with an IC50 under setting [1] of 6.6 nM.
`Cc1cccc(C2=C(c3ccc4ncc(C(N)=O)n4c3)CCCC2)n1` [Compound 16] displayed a 50% inhibitory concentration (IC50) under setting [1] of 48 nM.
The same measure, in the same setting: to `Cc1cccc(/C=C(/C(=O)N(C)C)c2ccc3ncc(C(N)=O)n3c2)n1` [Compound 20] belongs 34 nM; to `Cc1cccc(/C=C\c2ccc3ncc(C(N)=O)nc3c2)n1` [Compound 14], 78 nM.
